Data on nine molecules can be found in patent publication USRE28819E, “Dialkylated glycol compositions and medicament preparations containing same” (Syntex (U.S.A.) Inc., priority 1975, dated 1976).

Data set [1] can be described thus: physchem. To be noted: polyethylene glycol-550-dimethyl ether, organic solvent or mixture.
Data set [2] in a line: solubility of medicament in polyethylene glycol-550-dimethyl ether at 30°C.
A short description of data set [3]: storage stability of PGE2 formulations (percent activity, t90). As to conditions: PGE2, conclusion from Examples XV-XXIX. Type of data set: physicochemical. On the procedure:
A formulation is prepared having 1 mg. PGE2 per ml. 1,2-dimethoxyethane. After 12 days storage at 60°C. under a nitrogen atmosphere, the PGE2 assays 100% of the activity at time zero.
A formulation is prepared having 1 mg. PGE2 per ml. of triethylene glycol-dimethyl ether. After 5 days storage at 60°C. under a nitrogen atmosphere, the PGE2 assays 100% of the activity at time zero.
The following formulations are prepared having 1 mg. PGE2 per ml. of polyethylene glycol-550-dimethyl ether, and the additional material(s) as set forth below. The percent activity of the PGE2 after storage for 7 days at 80°C. is also given.
A formulation is prepared having 1 mg. PGE2, 0.01% edetic acid, 0.01% BHA and 0.01% BHT per ml. polyethylene glycol-550-dimethyl ether, and sealed in an ampule under nitrogen atmosphere. After 18 days storage at 80°C., the PGE2 assays 100% of the activity at time zero.
The following formulations are prepared having 1 mg. PGE2 per ml. polyethylene glycol-550 -dimethyl ether, and the additional material(s) as set forth below, and the sealed in individual ampules under nitrogen atmosphere. The time (t90) for 10% of the PGE2 to decompose when stored at 80°C. is given. Also given is the corresponding t90 for a formulation having 1 mg. PGE2 per ml. polyethylene glycol-400, also sealed under nitrogen atmosphere.
By comparison, 1 mg. […]

For data set [4] the following is noted: literature (Brummer; Karim et al); cited from earlier work.
The nature of data set [5]: decomposition of aspirin vs. time in formulation stored at 80°C. The format is physicochemical. To be noted: conclusion from Examples XV-XXIX. As to the method: A formulation is prepared having 0.5 g. aspirin per 1.0g. polyethylene glycol- 750-dimethyl ether, and stored at 80°C. Decomposition of the aspirin is measured vs. time. The time for 10% decomposition is 27 hours. This reflects approximately a 30 month shelf-life at 25°C. This can be compared to a published report [Jun et al, J. Pharm. Sec.

The mark [6] stands for this setting: polyethylene glycol-550-dimethyl ether, organic solvent or mixture.

≈ marks a conversion by molar mass, not a printed value. Counter-ions that a name gives are not always drawn.

With `CC(=O)[C@@]12OC(C)(C)O[C@@H]1C[C@H]1[C@@H]3C[C@H](F)C4=CC(=O)C=C[C@]4(C)[C@@]3(F)[C@@H](O)C[C@@]12C` [6α,9α-difluoro-11β-hydroxy-16α,17α-isopropylidenedioxy-pregna-1,4-diene-3,20-dione], in data set [1], the solubility (usually the dissolved amount per volume that the medium holds) turned out to be 6500 µg/mL (≈ 14.9 mM).
On to `CC1(C)O[C@@H]2C[C@H]3[C@@H]4C[C@H](F)C5=CC(=O)C=C[C@]5(C)[C@@]4(Cl)[C@@H](Cl)C[C@]3(C)[C@]2(C(=O)CCl)O1` [9α,11β,21-trichloro-6α-fluoro-16α,17α-isopropylidenedioxy-pregna-1,4-diene-3,20-dione], for which the solubility in data set [1] is 1500 µg/mL (≈ 2.97 mM).
On to `CCCCCCCCCCCCCCCC(=O)N(CCO)CCO` [N,N-bis(2-hydroxyethyl)-palmitamide], for which the solubility in data set [2] (setting [6]) is 2700 µg/mL (≈ 7.86 mM).
For the molecule `CCCCC[C@H](O)/C=C/[C@H]1[C@H](O)CC(=O)[C@@H]1C/C=C\CCCC(=O)O` [PGE2, 11α,15α-dihydroxy-9-keto-5,13-prostadienoic acid], the “chemical potency in the dialkylated glycol vehicle” value in data set [3] is reported as “stabilizes, for extended periods of time, the chemical potency”. The chemical stability entry in data set [4] is on record as “relatively unstable”. In data set [2] (setting [6]), the solubility was 2000 µg/mL (≈ 5.67 mM).
Regarding `CCCCC[C@H](O)/C=C/[C@@H]1[C@@H](C/C=C\CCCC(=O)O)[C@@H](O)C[C@H]1O` [PGF2α, 9α,11α,15α-trihydroxy-5,13-prostadienoic acid], in data set [1], the solubility was determined as 36000 µg/mL (≈ 102 mM).
As to `CC(=O)Oc1ccccc1C(=O)O` [aspirin, acetylsalicylic acid], the “chemical potency in the dialkylated glycol vehicle” value in data set [5] was “stabilizes, for extended periods of time, the chemical potency”. The solubility in data set [2] (setting [6]) was found to be 120000 µg/mL (≈ 666 mM).
With `CCOC(=O)c1ccc(N)cc1` [benzocaine], the solubility in data set [2] (setting [6]) worked out at 111000 µg/mL (≈ 672 mM).
Turning to `CN(C)C1C(=O)C(C(N)=O)=C(O)C2(O)C(=O)C3=C(O)c4c(O)cccc4C(C)(O)C3C(O)C12` (stereo not drawn) [oxytetracycline hydrochloride], in data set [1], the solubility worked out at 340 µg/mL.
In turn, gramicidin registered a solubility in data set [2] (in polyethylene glycol-550-dimethyl ether, 30°C) of 4400 µg/mL.
